Key:
hDAT [1] = target: T1, hDAT (Homo sapiens, UniProt Q01959); test: Inhibition of [^125I]RTI-55 binding to hDAT
5-HT2C receptor [2] = target: T2, 5-HT2C receptor (Homo sapiens, UniProt P28335); test: cell-based
T2 sequence (P28335 33-458): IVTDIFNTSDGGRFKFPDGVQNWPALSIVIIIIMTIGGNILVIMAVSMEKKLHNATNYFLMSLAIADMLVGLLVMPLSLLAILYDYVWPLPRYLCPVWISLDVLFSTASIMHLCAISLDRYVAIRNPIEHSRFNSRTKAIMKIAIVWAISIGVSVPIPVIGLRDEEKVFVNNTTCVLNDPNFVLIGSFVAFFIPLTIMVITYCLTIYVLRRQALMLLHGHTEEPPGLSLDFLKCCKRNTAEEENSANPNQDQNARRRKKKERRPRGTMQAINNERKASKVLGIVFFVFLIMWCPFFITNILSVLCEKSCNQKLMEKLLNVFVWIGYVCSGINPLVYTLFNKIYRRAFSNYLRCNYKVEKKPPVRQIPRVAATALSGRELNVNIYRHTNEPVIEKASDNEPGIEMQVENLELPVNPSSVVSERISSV

hSERT [3] = target: T3, hSERT (Homo sapiens, UniProt P31645); test: Inhibition of [^125I]RTI-55 binding to hSERT
[4] = taken hours after ingestion; cited from earlier work
hDAT [5] = target: T1, hDAT; test: Inhibition of [^3H]DA uptake by HEK-hDAT cells; type: cell-based
5-HT2B receptor [6] = target: T4, 5-HT2B receptor (Homo sapiens, UniProt P41595); test: 5-HT2B receptor [^3H]5-HT binding
hSERT [7] = target: T3, hSERT; test: Release of preloaded [^3H]5-HT from HEK-hSERT cells; type: cell-based
human 5-HT1A receptor = target: T5, human 5-HT1A receptor (Homo sapiens, UniProt P08908); test: 5-HT1A receptor [^35S]GTPγS binding stimulation; type: biochemical
T5 sequence (P08908 1-422): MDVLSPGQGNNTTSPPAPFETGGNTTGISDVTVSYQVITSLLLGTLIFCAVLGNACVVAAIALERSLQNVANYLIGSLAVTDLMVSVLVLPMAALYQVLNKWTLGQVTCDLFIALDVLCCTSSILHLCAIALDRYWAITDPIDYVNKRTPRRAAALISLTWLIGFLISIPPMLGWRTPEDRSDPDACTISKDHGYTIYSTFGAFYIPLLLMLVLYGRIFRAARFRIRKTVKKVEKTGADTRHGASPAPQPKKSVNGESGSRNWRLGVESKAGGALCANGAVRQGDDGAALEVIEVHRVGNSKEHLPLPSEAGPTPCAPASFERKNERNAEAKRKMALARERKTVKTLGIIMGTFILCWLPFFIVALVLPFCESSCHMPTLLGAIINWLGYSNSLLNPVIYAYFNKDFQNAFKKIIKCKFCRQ

[8] = Human blood concentrations after ingestion; conditions: converted from cited ng/ml values
5-HT2A receptor [9] = target: T6, 5-HT2A receptor (Homo sapiens, UniProt P28223); test: cell-based; type: cell-based
hSERT [10] = target: T3, hSERT; test: Inhibition of [^3H]5-HT uptake by HEK-hSERT cells; type: cell-based
hNET [11] = target: T7, hNET (Homo sapiens, UniProt P23975); test: cell-based
hDAT [12] = target: T1, hDAT; test: Release of preloaded [^3H]DA from HEK-hDAT cells; type: cell-based
hNET [13] = target: T7, hNET; test: Release of preloaded [^3H]NE from HEK-hNET cells; type: cell-based
5-HT2A receptor [14] = target: T6, 5-HT2A receptor; test: biochemical; type: binding
5-HT2B receptor [15] = target: T4, 5-HT2B receptor; test: 5-HT2B receptor inositol monophosphate; type: cell-based
hNET [16] = target: T7, hNET; test: biochemical; type: binding
[17] = cited from earlier work
5-HT2C receptor [18] = target: T2, 5-HT2C receptor; conditions: read-out: affinity of [^125I]DOI binding sites, h5-HT2C; HEK-5-HT2C; radioligand affinity
hDAT [19] = target: T1, hDAT; conditions: read-out: affinity of [^125I]RTI-55 binding sites, DAT; HEK-hDAT; cited from earlier work
hNET [20] = target: T7, hNET; conditions: read-out: affinity of [^125I]RTI-55 binding sites, NET; HEK-hNET; cited from earlier work

T4 sequence (P41595 whole entry): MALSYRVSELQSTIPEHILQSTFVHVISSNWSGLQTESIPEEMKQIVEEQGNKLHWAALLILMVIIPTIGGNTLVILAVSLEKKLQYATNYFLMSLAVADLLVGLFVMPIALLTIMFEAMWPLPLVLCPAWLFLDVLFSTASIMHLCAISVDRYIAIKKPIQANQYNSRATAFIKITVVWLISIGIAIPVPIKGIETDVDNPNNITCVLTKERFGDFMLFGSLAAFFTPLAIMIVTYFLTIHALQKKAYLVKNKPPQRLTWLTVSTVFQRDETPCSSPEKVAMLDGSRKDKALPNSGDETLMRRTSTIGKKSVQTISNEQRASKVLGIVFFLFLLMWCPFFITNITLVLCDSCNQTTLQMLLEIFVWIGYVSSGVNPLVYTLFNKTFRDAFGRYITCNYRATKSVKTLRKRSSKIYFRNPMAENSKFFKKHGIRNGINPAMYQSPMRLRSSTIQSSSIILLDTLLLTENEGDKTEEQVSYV
T7 sequence (P23975 whole entry): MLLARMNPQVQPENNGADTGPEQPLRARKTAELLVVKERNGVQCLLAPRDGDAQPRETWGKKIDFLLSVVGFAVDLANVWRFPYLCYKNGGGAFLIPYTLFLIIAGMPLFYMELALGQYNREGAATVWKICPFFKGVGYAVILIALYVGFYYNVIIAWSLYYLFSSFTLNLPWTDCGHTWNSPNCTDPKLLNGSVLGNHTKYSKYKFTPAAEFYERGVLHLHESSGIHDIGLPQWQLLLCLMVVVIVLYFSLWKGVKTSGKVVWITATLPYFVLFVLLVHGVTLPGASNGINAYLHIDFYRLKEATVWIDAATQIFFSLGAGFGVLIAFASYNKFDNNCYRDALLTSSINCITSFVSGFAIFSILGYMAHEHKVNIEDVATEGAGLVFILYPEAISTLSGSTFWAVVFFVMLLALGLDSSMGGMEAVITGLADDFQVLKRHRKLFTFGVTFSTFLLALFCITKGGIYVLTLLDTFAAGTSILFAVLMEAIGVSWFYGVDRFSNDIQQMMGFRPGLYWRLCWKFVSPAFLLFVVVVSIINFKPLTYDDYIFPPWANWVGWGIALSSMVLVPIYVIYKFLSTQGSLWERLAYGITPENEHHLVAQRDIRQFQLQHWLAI
T6 sequence (P28223 whole entry): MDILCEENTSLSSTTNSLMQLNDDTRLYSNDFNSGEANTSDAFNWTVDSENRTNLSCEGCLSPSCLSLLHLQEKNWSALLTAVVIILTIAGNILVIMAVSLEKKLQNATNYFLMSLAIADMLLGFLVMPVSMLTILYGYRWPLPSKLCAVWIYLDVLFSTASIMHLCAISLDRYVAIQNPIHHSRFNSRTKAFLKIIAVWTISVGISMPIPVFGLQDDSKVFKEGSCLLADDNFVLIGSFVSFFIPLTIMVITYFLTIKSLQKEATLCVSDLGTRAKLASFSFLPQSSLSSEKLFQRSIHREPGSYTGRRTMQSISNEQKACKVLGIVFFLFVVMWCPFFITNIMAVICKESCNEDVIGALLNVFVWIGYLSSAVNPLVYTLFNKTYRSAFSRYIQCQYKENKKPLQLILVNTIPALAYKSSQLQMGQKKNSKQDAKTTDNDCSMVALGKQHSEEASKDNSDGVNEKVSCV
T3 sequence (P31645 whole entry): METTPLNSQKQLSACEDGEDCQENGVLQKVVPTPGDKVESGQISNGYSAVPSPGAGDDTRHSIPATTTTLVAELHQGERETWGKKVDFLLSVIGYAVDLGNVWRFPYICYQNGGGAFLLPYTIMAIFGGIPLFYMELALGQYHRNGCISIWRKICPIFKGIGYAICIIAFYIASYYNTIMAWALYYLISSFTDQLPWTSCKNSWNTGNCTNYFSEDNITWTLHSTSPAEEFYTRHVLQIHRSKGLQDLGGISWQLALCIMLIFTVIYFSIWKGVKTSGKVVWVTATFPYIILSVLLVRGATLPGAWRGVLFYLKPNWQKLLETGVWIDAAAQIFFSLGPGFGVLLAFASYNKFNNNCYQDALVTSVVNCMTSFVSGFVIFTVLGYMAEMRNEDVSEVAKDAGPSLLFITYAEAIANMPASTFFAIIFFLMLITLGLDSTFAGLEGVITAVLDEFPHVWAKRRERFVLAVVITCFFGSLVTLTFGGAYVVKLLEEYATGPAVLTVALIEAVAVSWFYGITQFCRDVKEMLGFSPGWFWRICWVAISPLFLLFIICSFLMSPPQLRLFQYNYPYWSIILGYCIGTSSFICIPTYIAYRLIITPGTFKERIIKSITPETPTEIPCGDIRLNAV
T1 sequence (Q01959 whole entry): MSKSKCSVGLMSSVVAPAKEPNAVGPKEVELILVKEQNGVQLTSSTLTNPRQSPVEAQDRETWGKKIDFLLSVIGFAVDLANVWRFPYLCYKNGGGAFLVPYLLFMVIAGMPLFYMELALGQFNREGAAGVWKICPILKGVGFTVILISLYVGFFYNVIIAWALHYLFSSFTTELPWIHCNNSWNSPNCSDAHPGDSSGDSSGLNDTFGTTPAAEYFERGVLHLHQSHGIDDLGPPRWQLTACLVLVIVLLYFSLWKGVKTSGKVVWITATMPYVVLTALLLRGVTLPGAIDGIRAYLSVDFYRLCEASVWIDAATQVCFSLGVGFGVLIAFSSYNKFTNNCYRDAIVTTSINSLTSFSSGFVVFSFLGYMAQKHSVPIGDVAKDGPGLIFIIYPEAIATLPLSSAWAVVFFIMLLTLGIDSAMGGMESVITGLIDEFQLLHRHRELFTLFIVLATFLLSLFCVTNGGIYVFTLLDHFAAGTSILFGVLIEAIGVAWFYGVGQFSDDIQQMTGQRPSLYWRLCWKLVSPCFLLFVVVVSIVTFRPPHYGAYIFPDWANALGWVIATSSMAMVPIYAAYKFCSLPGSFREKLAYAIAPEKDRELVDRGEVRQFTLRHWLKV

## COc1ccc(OC)c(CCNCc2ccccc2OC)c1 [25H-NBOMe, 2-(2,5-dimethoxyphenyl)-N-(2-methoxybenzyl)ethanamine]
hDAT [1]
  Ki: 81400 ± 8900 nM
5-HT2C receptor [2]
  EC50: 13.8 ± 2.6 nM
5-HT2C receptor [2]; read-out: % maximum stimulation, 5-HT2C stimulation of IP-1 formation
  Emax: 95.5%
hSERT [3]
  Ki: 2220 ± 340 nM
[4]
  Human blood concentration: 0.29 ng/mL
hDAT [5]
  IC50: > 100000 nM
5-HT2B receptor [6]
  Ki: 62.9 ± 7.5 nM
hSERT [7]
  EC50: > 100000 nM
hSERT [7]; relative to maximum release induced by METH (0.3–1 mM)
  % maximum release, hSERT [^3H]5-HT: −0.27 ± 0.49%
Human 5-HT1A receptor
  EC50: 28400 ± 8600 nM
Human 5-HT1A receptor; read-out: % maximum stimulation, 5-HT1A stimulation of [^35S]GTPγS binding
  Emax: 52%
[8]
  blood concentration (molar): ~ 0.9 nM
5-HT2A receptor [9]; EC50, 5-HT2A stimulation of IP-1 formation, mean ± sem
  EC50: 40.7 ± 8.1 nM
5-HT2A receptor [9]; ratio of EC50 values
  Selectivity (functional ratios) 5-HT2A: 5-HT1A: 700
  Selectivity (functional ratios) 5-HT2A: 5-HT2B: 11
  Selectivity (functional ratios) 5-HT2A: 5-HT2C: 0.34
5-HT2A receptor [9]; read-out: % maximum stimulation, 5-HT2A stimulation of IP-1 formation
  Emax: 85.9%
hSERT [10]
  IC50: 2080 ± 310 nM
hNET [11]
  IC50: 3650 ± 880 nM
hDAT [12]
  EC50: > 100000 nM
hDAT [12]; relative to maximum release induced by METH (1–10 μM)
  % maximum release, hDAT [^3H]DA: −0.18 ± 0.26%
hNET [13]
  EC50: > 66000 nM
hNET [13]; relative to maximum release induced by METH (0.3–1 μM)
  % maximum release, hNET [^3H]NE: 21 ± 12%
5-HT2A receptor [14]
  Ki: 4.9 ± 1.3 nM
5-HT2A receptor [14]; ratio of Ki values
  Selectivity (binding ratios) 5-HT2A : 5-HT1A: 920
  Selectivity (binding ratios) 5-HT2A : 5-HT2B: 13
  Selectivity (binding ratios) 5-HT2A : 5-HT2C: 3.3
5-HT2B receptor [15]
  EC50: 463 ± 71 nM
5-HT2B receptor [15]; read-out: % maximum stimulation, 5-HT2B stimulation of IP-1 formation
  Emax: 37.7%
hNET [16]
  Ki: 16300 ± 2600 nM

## COc1cc(CCNCc2ccccc2OC)c(OC)cc1I [25I-NBOMe]
[8]
  blood concentration (molar): ~ 8 nM
[17]
  Postmortem brain tissue concentration: 2.54 ng/g
  Postmortem peripheral blood concentration: 0.405 ng/mL

## COc1cc(CC(C)N)c(OC)cc1I (stereo not drawn) [[^125I]DOI, [^125I]2,5-dimethoxy-4-iodoamphetamine]
5-HT2C receptor [18]
  Kd: 4.18 nM

## COC(=O)[C@H]1[C@@H](c2ccc(I)cc2)CC2CC[C@H]1N2C [[^125I]RTI-55, [^125I]methyl (1R,2S,3S)-3-(4-iodophenyl)-8-methyl-8-azabicyclo[3.2.1]octane-2-carboxylate]
hDAT [19]
  Kd: 1.83 nM
hNET [20]
  Kd: 12.1 nM

Reference: paper PMC6298744 (Biochemical pharmacology, 2018)
